Assay [1] relates to human peripheral blood pan T cells. Briefly: IFNγ and IL-2 analysis of human peripheral pan T cells. Format: cell-based. To be noted: T-cell, CD3/CD28 bead stimulation, 100 nM Prostaglandin E2, 24 hr. As to the method: IFNγ and IL-2 Analysis of Human Peripheral Pan T Cells
Human peripheral blood pan T cells were purchased from STEMCELL™ Technologies Inc. Human peripheral blood pan T cells were thawed and suspended in DMEM media (10% FBS and 10 Penicillin/Streptomycin). 8×10^4 T cells were seeded in 96-well plate and incubated with various concentration of compounds and 100 nM Prostaglandin E2 for 1 hr. T cells were stimulated with Dynabeads Human T-Activator CD3/CD28 (Life Technologies) at a 1:3 cells: beads ratio. […] Data were analyzed with an MESO Quickplex SQ120 (Mesoscale Discovery).
In Table 3, the values represent + for >1000 nM, ++ 200-1,000 nM, +++ for <200 nM and − for not determined.

In another assay the target is recombinant human HPK1 (Homo sapiens (Human), UniProt Q92918). Briefly: HPK1 kinase assay (ADP-Glo). To be noted: 25 μM ATP, MBP substrate. It is filed as biochemical. In a few lines:
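Activity was read as ADP formed, detected by ADP-Glo luminescence after the reaction of 5 ng recombinant human HPK1 with MBP and ATP (stocks 0.5 μg/μl and 25 μM) for 40 min at 30 °C. Buffer was Tris pH 7.5 with MgCl2, BSA and DTT, with compound in 0.5% DMSO. IC50 came from inhibition curves.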
In general terms: In ADP-Glo the light output rises with the ADP produced.

[2] abbreviates: IFNγ secretion, read-out: IFNγ (EC50).
Where [3] appears, read: IL-2 secretion, read-out: IL-2 (EC50).

Like-named read-outs stand apart in the source and are kept apart here.

recombinant human HPK1, sequence (Q92918 whole entry): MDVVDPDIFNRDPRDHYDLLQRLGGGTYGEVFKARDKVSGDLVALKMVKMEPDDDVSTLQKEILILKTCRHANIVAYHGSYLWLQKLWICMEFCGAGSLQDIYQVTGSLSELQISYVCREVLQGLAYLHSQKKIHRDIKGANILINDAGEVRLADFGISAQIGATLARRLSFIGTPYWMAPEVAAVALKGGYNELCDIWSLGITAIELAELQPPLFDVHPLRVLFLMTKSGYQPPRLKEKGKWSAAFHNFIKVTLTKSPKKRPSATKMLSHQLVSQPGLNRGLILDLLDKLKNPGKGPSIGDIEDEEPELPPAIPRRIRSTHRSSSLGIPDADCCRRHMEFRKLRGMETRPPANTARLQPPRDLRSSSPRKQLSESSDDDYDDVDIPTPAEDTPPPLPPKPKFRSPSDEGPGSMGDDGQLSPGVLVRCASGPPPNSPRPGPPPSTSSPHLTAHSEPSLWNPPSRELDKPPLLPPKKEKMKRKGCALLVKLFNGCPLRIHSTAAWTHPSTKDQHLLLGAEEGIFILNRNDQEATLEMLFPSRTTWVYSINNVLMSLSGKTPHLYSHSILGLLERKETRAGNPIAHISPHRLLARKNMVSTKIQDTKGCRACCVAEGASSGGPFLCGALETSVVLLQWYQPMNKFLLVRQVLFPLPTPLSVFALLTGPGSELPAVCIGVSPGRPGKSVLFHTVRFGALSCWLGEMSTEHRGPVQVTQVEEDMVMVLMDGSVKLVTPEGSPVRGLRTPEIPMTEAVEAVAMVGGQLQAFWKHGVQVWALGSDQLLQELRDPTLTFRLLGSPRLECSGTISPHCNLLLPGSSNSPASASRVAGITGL

The EC50 is the midpoint of the concentration-response curve. One may read the IC50 as the point on the concentration scale where inhibition reaches its midpoint. Consider `CCOc1c(F)c(SC)c(-c2ccc3nc(NC(=O)[C@@H]4C[C@@H]4F)sc3c2)c2cn[nH]c12` [Example 118, (1S,2S)-N-(6-(7-ethoxy-6-fluoro-5-(methylthio)-1H-indazol-4-yl)benzo[d]thiazol-2-yl)-2-fluorocyclopropane-1-carboxamide], for which the EC50 in assay [1] (setting [2]) is less than 200 nM. The IC50 on recombinant human HPK1 is less than 100 nM.

As for `Cc1c(F)c(N(C)C)c2[nH]ncc2c1-c1ccc2nc(NC(=O)[C@@H]3C[C@@H]3F)sc2n1` [Example 169, (1S,2S)-N-(5-(7-(dimethylamino)-6-fluoro-5-methyl-1H-indazol-4-yl)thiazolo[5,4-b]pyridin-2-yl)-2-fluorocyclopropane-1-carboxamide], the EC50 in assay [1] (setting [2]) is 200 to 1000 nM; in assay [1] (setting [3]) it was greater than 1000 nM. For the same compound, the IC50 at recombinant human HPK1 is less than 100 nM.

As to `CCOc1c(F)c(CC)c(-c2ccn3nc(NC(=O)[C@@H]4C[C@@H]4F)cc3c2)c2cn[nH]c12` [Example 531, (1S,2S)-N-(5-(7-ethoxy-5-ethyl-6-fluoro-1H-indazol-4-yl)pyrazolo[1,5-a]pyridin-2-yl)-2-fluorocyclopropane-1-carboxamide], the EC50 in assay [1] (setting [2]) was less than 200 nM; in assay [1] (setting [3]), 200 to 1000 nM. In addition, the IC50 on recombinant human HPK1 is less than 100 nM.

Turning to `CN(C)c1c(F)c(C(F)(F)F)c(-c2ccn3nc(NC(=O)[C@@H]4C[C@@H]4F)cc3c2)c2cn[nH]c12` [Example 565, (1S,2S)-N-(5-(7-(dimethylamino)-6-fluoro-5-(trifluoromethyl)-1H-indazol-4-yl)pyrazolo[1,5-a]pyridin-2-yl)-2-fluorocyclopropane-1-carboxamide], the EC50 in assay [1] (setting [2]) and in assay [1] (setting [3]) was 200 to 1000 nM in each case. Besides, the IC50 on recombinant human HPK1 was less than 100 nM.

Turning to `CSc1c(F)cc2[nH]ncc2c1-c1ccc2nc(NC(=O)[C@@H]3C[C@@H]3F)cn2c1` [Example 296, (1S,2S)-2-fluoro-N-(6-(6-fluoro-5-(methylthio)-1H-indazol-4-yl)imidazo[1,2-a]pyridin-2-yl)cyclopropane-1-carboxamide], the results for the EC50 in assay [1] (setting [2]) and in assay [1] (setting [3]) were less than 200 nM and 200 to 1000 nM, respectively. Moreover, the IC50 at recombinant human HPK1 is less than 100 nM.

Consider `CSc1c(F)cc2[nH]ncc2c1-c1ccc2nc(NC(=O)[C@@H]3C[C@@H]3F)sc2n1` [Example 156, (1S,2S)-2-fluoro-N-(5-(6-fluoro-5-(methylthio)-1H-indazol-4-yl)thiazolo[5,4-b]pyridin-2-yl)cyclopropane-1-carboxamide], for which the EC50 in assay [1] (setting [2]) and in assay [1] (setting [3]) was 200 to 1000 nM each time. In addition, the IC50 at recombinant human HPK1 was less than 100 nM.

For `CN(C)c1c(F)c(Cl)c(-c2ccc3nc(NC(=O)[C@@H]4C[C@H]4F)cn3c2)c2cn[nH]c12` [Example 333, (1S,2R)-N-(6-(5-chloro-7-(dimethylamino)-6-fluoro-1H-indazol-4-yl)imidazo[1,2-a]pyridin-2-yl)-2-fluorocyclopropane-1-carboxamide], the EC50 in assay [1] (setting [2]) and in assay [1] (setting [3]) was 200 to 1000 nM throughout. Further, the IC50 on recombinant human HPK1 is less than 100 nM.

For `CCc1c(F)c(N(C)C)c2[nH]ncc2c1-c1ccc2nc(NC(=O)[C@@H]3C[C@@H]3F)cn2c1` [Example 291, (1S,2S)-N-(6-(7-(dimethylamino)-5-ethyl-6-fluoro-1H-indazol-4-yl)imidazo[1,2-a]pyridin-2-yl)-2-fluorocyclopropane-1-carboxamide], the EC50 in assay [1] (setting [2]) was less than 200 nM; in assay [1] (setting [3]) it was 200 to 1000 nM. Further, at recombinant human HPK1, the IC50 is less than 100 nM.

`CC(C)Nc1c(F)c(Cl)c(-c2ccc3nc(NC(=O)[C@@H]4C[C@@H]4F)cn3c2)c2cn[nH]c12` [Example 359, (1S,2S)-N-(6-(5-chloro-6-fluoro-7-(isopropylamino)-1H-indazol-4-yl)imidazo[1,2-a]pyridin-2-yl)-2-fluorocyclopropane-1-carboxamide]: the EC50 in assay [1] (setting [2]) and in assay [1] (setting [3]) was 200 to 1000 nM each time. For the same compound, the IC50 on recombinant human HPK1 is less than 100 nM.

As to `Cc1c(F)c(N(C)C)c2[nH]ncc2c1-c1ccc2nc(NC(=O)[C@@H]3C[C@@H]3F)sc2c1` [Example 104, (1S,2S)-N-(6-(7-(dimethylamino)-6-fluoro-5-methyl-1H-indazol-4-yl)benzo[d]thiazol-2-yl)-2-fluorocyclopropane-1-carboxamide], the EC50 in assay [1] (setting [2]) is 200 to 1000 nM; in assay [1] (setting [3]) it was greater than 1000 nM. Moreover, the IC50 at recombinant human HPK1 was less than 100 nM.

`CCOc1c(F)c(SC)c(-c2ccc3nc(NC(=O)[C@@H]4C[C@@H]4F)sc3n2)c2cn[nH]c12` [Example 184, (1S,2S)-N-(5-(7-ethoxy-6-fluoro-5-(methylthio)-1H-indazol-4-yl)thiazolo[5,4-b]pyridin-2-yl)-2-fluorocyclopropane-1-carboxamide]: the EC50 in assay [1] (setting [2]) was less than 200 nM. Moreover, the IC50 at recombinant human HPK1 is less than 100 nM.

As for `CCN(C)c1c(F)c(Cl)c(-c2ccn3nc(NC(=O)[C@@H]4C[C@@H]4F)cc3c2)c2cn[nH]c12` [Example 564, (1S,2S)-N-(5-(5-chloro-7-(ethyl(methyl)amino)-6-fluoro-1H-indazol-4-yl)pyrazolo[1,5-a]pyridin-2-yl)-2-fluorocyclopropane-1-carboxamide], the EC50 in assay [1] (setting [2]) and in assay [1] (setting [3]) was 200 to 1000 nM each time. The IC50 at recombinant human HPK1 is less than 100 nM.

Take `CSc1c(F)c(N(C)C)c2[nH]ncc2c1-c1ccn2nc(NC(=O)[C@@H]3C[C@@H]3F)cc2c1` [Example 558, (1S,2S)-N-(5-(7-(dimethylamino)-6-fluoro-5-(methylthio)-1H-indazol-4-yl)pyrazolo[1,5-a]pyridin-2-yl)-2-fluorocyclopropane-1-carboxamide]: the EC50 is less than 200 nM in assay [1] (setting [2]) and 200 to 1000 nM in assay [1] (setting [3]). The IC50 on recombinant human HPK1 was less than 100 nM.

For `CSc1c(F)c(SC)c2[nH]ncc2c1-c1ccc2nc(NC(=O)[C@@H]3C[C@@H]3F)cn2c1` [Example 297, (1S,2S)-2-fluoro-N-(6-(6-fluoro-5,7-bis(methylthio)-1H-indazol-4-yl)imidazo[1,2-a]pyridin-2-yl)cyclopropane-1-carboxamide], the half-maximal effective concentration (EC50) in assay [1] (setting [2]) and in assay [1] (setting [3]) was less than 200 nM throughout. The IC50 at recombinant human HPK1 was less than 100 nM.

With `CCc1c(F)c(SC)c2[nH]ncc2c1-c1ccc2nc(NC(=O)[C@@H]3C[C@@H]3F)cn2c1` [Example 293, (1S,2S)-N-(6-(5-ethyl-6-fluoro-7-(methylthio)-1H-indazol-4-yl)imidazo[1,2-a]pyridin-2-yl)-2-fluorocyclopropane-1-carboxamide], in assay [1] (setting [2]), the EC50 is less than 200 nM. Besides, the IC50 on recombinant human HPK1 was less than 100 nM.

As for `CCN(C)c1c(F)c(SC)c(-c2ccc3nc(NC(=O)[C@@H]4C[C@@H]4F)cn3c2)c2cn[nH]c12` [Example 324, (1S,2S)-N-(6-(7-(ethyl(methyl)amino)-6-fluoro-5-(methylthio)-1H-indazol-4-yl)imidazo[1,2-a]pyridin-2-yl)-2-fluorocyclopropane-1-carboxamide], the EC50 in assay [1] (setting [2]) was less than 200 nM; in assay [1] (setting [3]), 200 to 1000 nM. The IC50 at recombinant human HPK1 is less than 100 nM.

On to `CN(C)c1c(F)c(Cl)c(-c2ccc3nc(NC(=O)C4CC4)cn3c2)c2cn[nH]c12` [Example 327, N-(6-(5-chloro-7-(dimethylamino)-6-fluoro-1H-indazol-4-yl)imidazo[1,2-a]pyridin-2-yl)cyclopropanecarboxamide], for which the EC50 in assay [1] (setting [2]) was less than 200 nM; in assay [1] (setting [3]), 200 to 1000 nM. Besides, the IC50 at recombinant human HPK1 was less than 100 nM.

Regarding `CSc1c(F)c(F)c2[nH]ncc2c1-c1ccn2nc(NC(=O)[C@@H]3C[C@@H]3F)cc2c1` [Example 541, (1S,2S)-N-(5-(6,7-difluoro-5-(methylthio)-1H-indazol-4-yl)pyrazolo[1,5-a]pyridin-2-yl)-2-fluorocyclopropane-1-carboxamide], the EC50 in assay [1] (setting [2]) is 200 to 1000 nM. In addition, the IC50 on recombinant human HPK1 is less than 100 nM.

In the case of `CCc1c(F)c(SCC(=O)NC)c2[nH]ncc2c1-c1ccc2nc(NC(=O)[C@@H]3C[C@@H]3F)sc2n1` [Example 167, (1S,2S)-N-(5-(5-ethyl-6-fluoro-7-((2-(methylamino)-2-oxoethyl)thio)-1H-indazol-4-yl)thiazolo[5,4-b]pyridin-2-yl)-2-fluorocyclopropane-1-carboxamide], the EC50 in assay [1] (setting [2]) was 200 to 1000 nM; in assay [1] (setting [3]), greater than 1000 nM. Besides, the IC50 on recombinant human HPK1 was less than 100 nM.

For `CCN(C)c1c(F)c(SC)c(-c2ccn3nc(NC(=O)[C@@H]4C[C@@H]4F)cc3c2)c2cn[nH]c12` [Example 577, (1S,2S)-N-(5-(7-(ethyl(methyl)amino)-6-fluoro-5-(methylthio)-1H-indazol-4-yl)pyrazolo[1,5-a]pyridin-2-yl)-2-fluorocyclopropane-1-carboxamide], the values for the EC50 in assay [1] (setting [2]) and in assay [1] (setting [3]) were less than 200 nM and 200 to 1000 nM, respectively. In addition, the IC50 on recombinant human HPK1 is less than 100 nM.

For `CCc1c(F)c(F)c2[nH]ncc2c1-c1ccn2nc(NC(=O)[C@@H]3C[C@@H]3F)cc2c1` [Example 532, (1S,2S)-N-(5-(5-ethyl-6,7-difluoro-1H-indazol-4-yl)pyrazolo[1,5-a]pyridin-2-yl)-2-fluorocyclopropane-1-carboxamide], the EC50 in assay [1] (setting [2]) lay within 200 to 1000 nM. Moreover, the IC50 on recombinant human HPK1 was less than 100 nM.

In the case of `CCN(C)c1c(F)c(Cl)c(-c2ccc3nc(NC(=O)[C@@H]4C[C@@H]4F)sc3n2)c2cn[nH]c12` [Example 196, (1S,2S)-N-(5-(5-chloro-7-(ethyl(methyl)amino)-6-fluoro-1H-indazol-4-yl)thiazolo[5,4-b]pyridin-2-yl)-2-fluorocyclopropane-1-carboxamide], the EC50 in assay [1] (setting [2]) is 200 to 1000 nM.

(Values after patent US11649255B2, “Indazoles as hematopoietic progenitor kinase 1 (HPK1) inhibitors and methods using same” (1st Biotherapeutics, Inc., priority 2020, dated 2023).)
